Data: patent publication US20060172423A1, “New expression system from rhodococcus” (priority 2002, published 2006)
Like-named read-outs stand apart in the source and are kept apart here.

Tests used:
[1] = test system: repressor-promoter system of the KstD gene; experiment: steroid induction of KSTD activity in cell free extracts (DCPIP as electron acceptor, AD as substrate), SQ1; assay type: cell-based, Rhodococcus erythropolis SQ1
Procedure: 4-androstene-3,17-dione (AD) induction served as a positive control.
From induced cultures, cell free extracts were prepared as indicated above and tested for KSTD activity using DCPIP as an electron acceptor and AD as a substrate.
(§1) Further, it was investigated whether KSTD1 was constitutively expressed in R. erythropolis RG10. Cell free extracts were prepared from an AD-induced cell culture and from a non-induced cell culture. These extracts were tested for KSTD activity using DCPIP as an electron acceptor and AD as a substrate. For reasons of comparison, the same procedure was performed with R. erythropolis SQ1.

KSTD activity [2] = experiment: KSTD activity in cell free extracts (DCPIP as electron acceptor, AD as substrate), RG10; assay type: cell-based, Rhodococcus erythropolis RG10; details: cell free extract of AD-induced culture
Procedure: as §1

KSTD activity [3] = details: gene disruption mutant SDH420; cited from earlier work

Row | SMILES | lifting of kstD promoter repression exerted by the kstR gene product ([1]; addition of steroid compound) | also measured
1 | CC(=O)[C@H]1CC[C@H]2[C@@H]3CCC4=CC(=O)CC[C@]4(C)[C@H]3CC[C@]12C [progesterone] | able to lift kstD promotor repression | –
2 | C[C@]12CC[C@H]3C(=CCC4=CC(=O)CC[C@@]43CO)[C@@H]1CCC2=O [19-OH-7-dehydro-androstene-3,17-dione] | able to lift kstD promotor repression | –
3 | CC(=O)[C@H]1CC[C@H]2[C@@H]3CC=C4C[C@@H](O)CC[C@]4(C)[C@H]3CC[C@]12C [pregnenolone] | able to lift kstD promotor repression | –
4 | C[C@@H]1CC2=CC(=O)CC[C@@H]2[C@H]2CC[C@]3(C)C(=O)CC[C@H]3[C@@H]21 [7α-methyl-nordione] | able to lift kstD promotor repression | –
5 | C[C@]12CCC(=O)C=C1CC[C@H]1[C@@H]3CCC(=O)[C@@]3(C)CC[C@@]12O [9OHAD, 9α-hydroxy-4-androstene-3,17-dione] | – | lifting of kstD promoter repression exerted by the kstR gene product [1]: able to lift kstD promotor repression
6 | C[C@]12C=CC(=O)C=C1CC[C@@H]1[C@@H]2CC[C@]2(C)C(=O)CC[C@@H]12 [ADD, 1,4-androstadiene-3,17-dione] | able to lift kstD promotor repression | –
7 | C[C@]12CC[C@H]3[C@@H](CCC4=CC(=O)CC[C@@H]43)[C@@H]1CCC2=O [estr-4-ene-3,17-dione] | able to lift kstD promotor repression | –
8 | C[C@]12CCC(=O)C=C1CC[C@@H]1[C@@H]2CC[C@]2(C)C(=O)CC[C@@H]12 [AD, 4-androstene-3,17-dione] | able to lift kstD promotor repression | KSTD activity in R. erythropolis RG10 (KSTD activity [2]): present; induction of wild-type KSTD activity in R. erythropolis SDH420 (KSTD activity [3]): can be induced; induction of KSTD activity in R. erythropolis SQ1 ([1]; cell free extracts of induced cultures, DCPIP electron acceptor, AD substrate): detected
9 | C[C@]12CCC(=O)C[C@@H]1CC[C@@H]1[C@@H]2CC[C@]2(C)[C@@H](O)CC[C@@H]12 [stanolone, 17β-OH-5α-androstane-3-on] | – | lifting of kstD promoter repression exerted by the kstR gene product [1]: able to lift kstD promotor repression
10 | C=C1C[C@]2(C)C(=O)CC[C@H]2[C@@H]2CCC3=CC(=O)CC[C@@H]3[C@@H]12 [11-methylene-nordione] | able to lift kstD promotor repression | –
11 | C[C@]12CC[C@H]3[C@@H](CCC4=CC(=O)CC[C@@]43C)[C@@H]1CC[C@@H]2O [testosterone] | – | lifting of kstD promoter repression exerted by the kstR gene product [1]: able to lift kstD promotor repression
